{
  "source": "patent US20070098786A1",
  "about": "“ENTERIC VALPROIC ACID” (Banner Pharmacaps, Inc., priority 2005, published 2007)",
  "origin": "cited, not measured here",
  "data": [
    {"molecule": "CCCC(CCC)C(=O)O", "note": "[Divalproex sodium]", "values": [
      {"measurement": "solubility in water", "value": "soluble in water"}
    ]}
  ]
}
